Results as given in ChEMBL document CHEMBL3526033, “Identification of human liver cytochrome P450 enzymes involved in the metabolism of SCH 530348 (Vorapaxar), a potent oral thrombin protease-activated receptor 1 antagonist” (Drug Metab Dispos, 2011).

Tests used:
Cytochrome P450 1B1 = Cytochrome P450 1B1 (Homo sapiens, UniProt Q16678); assay: Activity of human recombinant CYP1B1 assessed as enzyme-mediated drug metabolism treated with 25 uM vorapaxar after 120 mins by LC-MS/MS analysis in presence of NADPH; format: ADME; settings: 2 h
Cytochrome P450 2C19 [1] = molecular target: T1, Cytochrome P450 2C19 (Homo sapiens, UniProt P33261); assay: Activity of human recombinant CYP2C19 assessed as enzyme-mediated drug metabolism treated with 25 uM vorapaxar after 120 mins by LC-MS/MS analysis in presence of NADPH; format: ADME; settings: 2 h
[2] = Drug metabolism in human lung microsomes assessed as 2-hydroxyethyl (1R,3aR,4aR,6R,8aR,9S,9aS)-9-((E)-2-(5-(3-fluorophenyl)pyridin-2-yl)vinyl)-1-methyl-3-oxododecahydronaphtho[2,3-c]furan-6-ylcarbamate formation at 25 uM after 120 mins by LC-MS/MS analysis in presence of NADPH; format: ADME, microsome; settings: 2 h
Cytochrome P450 2J2 = molecular target: T2, Cytochrome P450 2J2 (Homo sapiens, UniProt P51589); assay: Drug metabolism assessed as human recombinant CYP2J2-mediated 2-hydroxyethyl (1R,3aR,4aR,6R,8aR,9S,9aS)-9-((E)-2-(5-(3-fluorophenyl)pyridin-2-yl)vinyl)-1-methyl-3-oxododecahydronaphtho[2,3-c]furan-6-ylcarbamate formation at 25 uM after 120 mins by LC-MS/MS analysis in presence of ketoconazole; format: ADME; settings: recombinant enzyme, 2 h
T2 sequence (P51589 whole entry): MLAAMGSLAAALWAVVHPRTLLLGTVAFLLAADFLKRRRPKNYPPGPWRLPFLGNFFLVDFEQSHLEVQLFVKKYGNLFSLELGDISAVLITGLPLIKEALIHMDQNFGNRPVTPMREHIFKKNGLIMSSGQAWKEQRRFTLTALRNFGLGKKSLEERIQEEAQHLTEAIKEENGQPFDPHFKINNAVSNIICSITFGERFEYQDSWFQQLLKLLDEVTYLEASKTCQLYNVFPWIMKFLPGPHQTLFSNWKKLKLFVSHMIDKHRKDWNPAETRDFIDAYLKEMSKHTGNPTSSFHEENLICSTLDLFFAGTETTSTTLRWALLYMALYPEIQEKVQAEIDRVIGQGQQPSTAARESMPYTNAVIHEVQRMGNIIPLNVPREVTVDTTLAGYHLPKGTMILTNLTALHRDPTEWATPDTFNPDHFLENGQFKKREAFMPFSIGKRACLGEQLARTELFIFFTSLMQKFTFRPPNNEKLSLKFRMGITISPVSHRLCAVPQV

Liver microsome = assay: Drug metabolism in human liver microsomes assessed as (3R,3aS,4S,4aR,7R,8aR,9aR)-7-amino-4-((E)-2-(5-(3-fluorophenyl)pyridin-2-yl)vinyl)-3-methyldecahydronaphtho[2,3-c]furan-1(3H)-one formation at 10 to 25 uM after 120 mins by LC-MS/MS analysis in presence of alpha-napthoflavone; format: ADME; settings: 2 h
[3] = Drug metabolism in insect microsomes at 10 uM after 120 mins by LC-MS/MS analysis in presence of NADPH; format: ADME, Microsome; settings: read-out: Compound recovery
CYP3A4 = CYP3A4 (Homo sapiens, UniProt P08684); assay: Activity of human recombinant CYP3A4 assessed as enzyme-mediated drug metabolism at 10 uM after 120 mins by LC-MS/MS analysis in presence of NADPH; format: ADME; settings: read-out: Compound recovery
Cytochrome P450 4F3 [4] = molecular target: T3, Cytochrome P450 4F3 (Homo sapiens, UniProt Q08477); assay: Activity of human recombinant CYP4F3B assessed as enzyme-mediated 2-hydroxyethyl (1R,3aR,4aR,6R,8aR,9S,9aS)-9-((E)-2-(5-(3-fluorophenyl)pyridin-2-yl)vinyl)-1-methyl-3-oxododecahydronaphtho[2,3-c]furan-6-ylcarbamate formation at 25 uM after 120 mins by LC-MS/MS analysis in presence of NADPH; format: ADME; settings: 2 h
T3 sequence (Q08477 whole entry): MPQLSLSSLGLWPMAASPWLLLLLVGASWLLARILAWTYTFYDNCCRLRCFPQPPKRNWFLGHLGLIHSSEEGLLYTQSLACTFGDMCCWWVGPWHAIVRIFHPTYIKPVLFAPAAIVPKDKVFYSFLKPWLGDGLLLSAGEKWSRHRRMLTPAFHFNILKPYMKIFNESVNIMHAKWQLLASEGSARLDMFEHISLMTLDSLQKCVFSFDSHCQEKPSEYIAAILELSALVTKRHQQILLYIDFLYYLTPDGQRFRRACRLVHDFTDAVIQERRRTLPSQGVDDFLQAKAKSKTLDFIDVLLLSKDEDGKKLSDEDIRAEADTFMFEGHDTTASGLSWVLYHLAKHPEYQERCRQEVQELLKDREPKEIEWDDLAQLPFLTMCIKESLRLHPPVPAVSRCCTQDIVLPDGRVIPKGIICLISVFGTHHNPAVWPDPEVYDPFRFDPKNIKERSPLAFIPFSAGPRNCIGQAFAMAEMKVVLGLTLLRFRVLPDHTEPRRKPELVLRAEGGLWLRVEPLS

Cytochrome P450 1A2 = molecular target: T4, Cytochrome P450 1A2 (Homo sapiens, UniProt P05177); assay: Activity of human recombinant CYP1A2 assessed as enzyme-mediated (3R,3aS,4S,4aR,7R,8aR,9aR)-7-amino-4-((E)-2-(5-(3-fluorophenyl)pyridin-2-yl)vinyl)-3-methyldecahydronaphtho[2,3-c]furan-1(3H)-one formation at 25 uM after 120 mins by LC-MS/MS analysis in presence of NADPH; format: ADME; settings: 2 h
T4 sequence (P05177 whole entry): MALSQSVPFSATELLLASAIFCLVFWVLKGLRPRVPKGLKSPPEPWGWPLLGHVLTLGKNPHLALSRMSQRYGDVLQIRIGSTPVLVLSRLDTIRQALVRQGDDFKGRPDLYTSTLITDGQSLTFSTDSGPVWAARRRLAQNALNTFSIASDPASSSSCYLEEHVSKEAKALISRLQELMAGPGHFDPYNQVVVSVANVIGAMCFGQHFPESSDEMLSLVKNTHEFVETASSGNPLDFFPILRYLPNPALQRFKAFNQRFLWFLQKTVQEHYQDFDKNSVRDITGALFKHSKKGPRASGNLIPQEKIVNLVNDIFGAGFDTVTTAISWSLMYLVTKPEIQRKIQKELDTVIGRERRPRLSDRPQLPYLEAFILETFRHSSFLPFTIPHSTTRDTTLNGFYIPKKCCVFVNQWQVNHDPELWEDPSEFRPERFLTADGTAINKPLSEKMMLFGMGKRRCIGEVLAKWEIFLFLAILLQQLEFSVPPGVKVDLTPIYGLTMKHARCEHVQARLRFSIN

Cytochrome P450 2C19 [5] = molecular target: T1, Cytochrome P450 2C19; assay: Activity of human recombinant CYP2C19 assessed as enzyme-mediated drug metabolism at 10 uM after 120 mins by LC-MS/MS analysis; format: ADME; settings: 2 h
[6] = Drug metabolism in human liver S9 fraction assessed as (3R,3aS,4S,4aR,7R,8aR,9aR)-7-amino-4-((E)-2-(5-(3-fluorophenyl)pyridin-2-yl)vinyl)-3-methyldecahydronaphtho[2,3-c]furan-1(3H)-one formation at 10 uM after 120 mins by LC-MS/MS analysis; format: ADME, subcellular; settings: s9, 2 h
Cytochrome P450 4F3 [7] = molecular target: T3, Cytochrome P450 4F3; assay: Activity of human recombinant CYP4F3A assessed as enzyme-mediated 2-hydroxyethyl (1R,3aR,4aR,6R,8aR,9S,9aS)-9-((E)-2-(5-(3-fluorophenyl)pyridin-2-yl)vinyl)-1-methyl-3-oxododecahydronaphtho[2,3-c]furan-6-ylcarbamate formation at 25 uM after 120 mins by LC-MS/MS analysis in presence of NADPH; format: ADME; settings: 2 h

T1 sequence (P33261 whole entry): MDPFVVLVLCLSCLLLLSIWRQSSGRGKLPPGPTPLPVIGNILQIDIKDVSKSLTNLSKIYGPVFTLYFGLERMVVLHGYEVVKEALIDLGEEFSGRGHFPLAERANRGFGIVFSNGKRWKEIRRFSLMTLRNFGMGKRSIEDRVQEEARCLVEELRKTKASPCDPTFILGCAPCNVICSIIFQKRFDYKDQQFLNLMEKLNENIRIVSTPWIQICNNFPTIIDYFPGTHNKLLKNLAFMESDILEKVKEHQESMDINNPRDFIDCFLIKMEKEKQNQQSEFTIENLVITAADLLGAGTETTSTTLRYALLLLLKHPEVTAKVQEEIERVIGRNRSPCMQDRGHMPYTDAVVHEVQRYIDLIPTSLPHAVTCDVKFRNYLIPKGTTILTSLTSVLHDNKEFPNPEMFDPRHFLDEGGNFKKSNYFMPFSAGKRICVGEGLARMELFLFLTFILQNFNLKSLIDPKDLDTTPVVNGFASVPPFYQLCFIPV
CYP3A4, sequence (P08684 whole entry): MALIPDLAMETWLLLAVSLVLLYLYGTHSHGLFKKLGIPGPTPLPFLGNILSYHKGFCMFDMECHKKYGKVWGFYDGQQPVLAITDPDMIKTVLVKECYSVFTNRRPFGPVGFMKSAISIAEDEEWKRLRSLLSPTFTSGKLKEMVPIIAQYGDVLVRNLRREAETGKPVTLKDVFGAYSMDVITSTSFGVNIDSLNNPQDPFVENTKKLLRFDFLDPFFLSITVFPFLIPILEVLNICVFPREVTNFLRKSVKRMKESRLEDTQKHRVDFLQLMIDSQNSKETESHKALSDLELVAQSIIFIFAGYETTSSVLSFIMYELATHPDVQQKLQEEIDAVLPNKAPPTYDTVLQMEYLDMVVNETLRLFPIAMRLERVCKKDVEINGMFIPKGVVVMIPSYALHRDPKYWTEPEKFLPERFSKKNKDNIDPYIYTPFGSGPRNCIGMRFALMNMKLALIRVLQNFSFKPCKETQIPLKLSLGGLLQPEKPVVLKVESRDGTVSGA
Cytochrome P450 1B1, sequence (Q16678 whole entry): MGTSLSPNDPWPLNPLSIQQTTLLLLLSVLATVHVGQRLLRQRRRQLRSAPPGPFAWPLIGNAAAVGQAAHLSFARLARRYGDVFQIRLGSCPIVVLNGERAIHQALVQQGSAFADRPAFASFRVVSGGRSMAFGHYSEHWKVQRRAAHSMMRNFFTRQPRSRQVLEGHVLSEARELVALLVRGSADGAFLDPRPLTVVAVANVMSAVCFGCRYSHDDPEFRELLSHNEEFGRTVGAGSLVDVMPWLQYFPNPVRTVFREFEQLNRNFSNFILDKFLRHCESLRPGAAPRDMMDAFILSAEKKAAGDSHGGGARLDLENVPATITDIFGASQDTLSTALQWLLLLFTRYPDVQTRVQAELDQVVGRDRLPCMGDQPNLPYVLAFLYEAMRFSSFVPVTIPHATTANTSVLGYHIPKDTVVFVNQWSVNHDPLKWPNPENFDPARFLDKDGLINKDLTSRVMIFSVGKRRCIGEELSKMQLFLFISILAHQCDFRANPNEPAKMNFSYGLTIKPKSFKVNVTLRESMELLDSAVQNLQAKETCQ

With `C[C@H]1OC(=O)[C@@H]2C[C@@H]3C[C@H](NC(=O)OCCO)CC[C@H]3[C@H](/C=C/c3ccc(-c4cccc(F)c4)cn3)[C@H]12` the Drug metabolism (Cytochrome P450 1B1) was “metabolite_detected” and the Drug metabolism (Cytochrome P450 2C19 [1]) was “metabolite_detected”.
In the case of `CCOC(=O)N[C@@H]1CC[C@@H]2[C@@H](C1)C[C@H]1C(=O)O[C@H](C)[C@H]1[C@H]2/C=C/c1ccc(-c2cccc(F)c2)cn1` [VORAPAXAR], the Drug metabolism [2] is reported as “metabolite_detected”, the Drug metabolism (Cytochrome P450 2J2) is reported as “metabolite_not_detected” and the Drug metabolism (Liver microsome) is reported as “metabolite_detected”. It also gave a remaining at 2 h, 10 µM [3] of 98.7% and a remaining at 2 h, 10 µM (CYP3A4) of 72.5%.
For `CCOC(=O)N[C@@H]1CC[C@@H]2[C@@H](C1)C[C@H]1C(=O)O[C@H](C)[C@H]1[C@H]2/C=[14CH]/c1ccc(-c2cccc(F)c2)cn1`, the Drug metabolism (Cytochrome P450 4F3 [4]) was “metabolite_detected”, the Drug metabolism (Cytochrome P450 1A2) was “metabolite_detected” and the Drug metabolism (Cytochrome P450 2C19 [5]) was “metabolite_not_detected”. For the same compound, the Drug metabolism [6] was “metabolite_not_detected” and the Drug metabolism (Cytochrome P450 4F3 [7]) was “metabolite_detected”.
